Key:
CD73 = biological target: T1, CD73 (Homo sapiens, UniProt P21589); assay: In vitro enzymatic activity against CD73 (malachite green test using soluble CD73); assay type: biochemical; settings: soluble CD73 36 ng/mL, 50 μM AMP, 30 minutes at 25° C.
T1 construct: purchased R&D systems 5795-EN-010
T1 sequence (P21589 27-547 limits assumed): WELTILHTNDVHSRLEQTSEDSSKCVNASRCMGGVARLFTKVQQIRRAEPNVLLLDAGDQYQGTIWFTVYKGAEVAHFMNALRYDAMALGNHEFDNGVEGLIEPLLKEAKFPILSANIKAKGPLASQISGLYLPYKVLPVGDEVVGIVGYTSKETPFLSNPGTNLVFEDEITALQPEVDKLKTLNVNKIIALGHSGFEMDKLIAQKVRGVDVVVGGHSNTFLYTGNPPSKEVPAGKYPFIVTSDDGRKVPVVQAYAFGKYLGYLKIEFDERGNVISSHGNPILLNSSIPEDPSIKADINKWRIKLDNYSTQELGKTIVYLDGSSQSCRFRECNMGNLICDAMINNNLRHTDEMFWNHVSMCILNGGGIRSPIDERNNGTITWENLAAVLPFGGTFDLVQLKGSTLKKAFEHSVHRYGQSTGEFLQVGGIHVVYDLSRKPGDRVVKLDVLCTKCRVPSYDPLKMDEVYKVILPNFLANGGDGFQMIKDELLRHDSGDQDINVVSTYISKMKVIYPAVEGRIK
Method: The malachite green test using soluble CD73, which is synthesized in vitro was used in the present invention to determine the characteristics of inhibitory activity of the compounds against CD73. The specific experimental procedures were as following:
1. The enzyme reaction in this experiment was carried out in 384-well plates, and CD73 (R&D systems #5795-EN-010) at a concentration of 36 ng/mL, the compounds at different concentrations and 50 μM AMP were incubated for 30 minutes at 25° C. in a 40 uL reaction system (consisting of 25 mM Tris pH 7.5, 5 mM MgCl2, and 0.005% Tween-20);
2. Then, 10 μL of malachite green solution (Sigma) was added to each well to terminate the reaction;
3. The concentration of resulting inorganic phosphate was determined according to the instructions of the reagent manufacturer;
4. The enzymatic activity of CD73 was calculated based on the concentration of the product, and then IC50 values were determined by non-linear regression analysis of the inhibition percentage of the compounds of the present invention at different concentrations.

[1] = biological target: T2, CD73 enzymatic activity expressed on the cell surface of MDA-MB-231 cells (Homo sapiens, UniProt P21589); assay: Inhibition of CD73 enzymatic activity on the cell surface (Cell Titer Glo (CTG) experiment), MDA-MB-231 cells; assay type: cell-based; settings: MDA-MB-231 cells endogenously expressing CD73, AMP, 37° C. for 2 hours, CTG readout; read-out: Cellular activity IC50
T2 construct: Human breast cancer cells MDA-MB-231 that endogenously express CD73 were used; host or cells: MDA-MB-231
T2 sequence (P21589 27-549): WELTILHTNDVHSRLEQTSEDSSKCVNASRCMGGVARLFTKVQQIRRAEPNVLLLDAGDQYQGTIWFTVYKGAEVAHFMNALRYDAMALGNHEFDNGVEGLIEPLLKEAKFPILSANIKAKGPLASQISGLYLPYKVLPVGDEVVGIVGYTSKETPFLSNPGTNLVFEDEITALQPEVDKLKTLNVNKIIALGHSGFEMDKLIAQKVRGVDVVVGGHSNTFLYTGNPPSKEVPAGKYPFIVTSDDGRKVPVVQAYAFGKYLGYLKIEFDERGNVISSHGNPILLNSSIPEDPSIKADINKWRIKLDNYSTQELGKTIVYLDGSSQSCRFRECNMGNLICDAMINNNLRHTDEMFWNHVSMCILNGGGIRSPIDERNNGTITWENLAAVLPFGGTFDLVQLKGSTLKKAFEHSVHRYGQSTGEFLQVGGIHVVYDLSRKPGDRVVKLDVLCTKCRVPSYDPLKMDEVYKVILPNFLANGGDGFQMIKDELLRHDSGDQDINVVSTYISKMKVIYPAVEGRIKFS
Method: Human breast cancer cells MDA-MB-231 that endogenously express CD73 were used in the present invention to evaluate the inhibition of the compound against the CD73 enzymatic activity expressed on the cell surface. The cells used were from the Cell Bank of the Chinese Academy of Sciences. The specific experimental procedures were as follows:
1. Before the test, MDA-MB231 cells were seeded to a 96-well plate at 20000 cells/well;
2. In RPMI1640, 10% fetal bovine serum (Gibco, 10099-141), placed in a 5% CO2 incubator at 37° C. overnight (the cells were washed three times by using a serum-free RPMI medium right before the test):
3. 50 μl of serum-free media containing the compounds at different concentrations were added to the cells and incubated for 15 minutes;
4. 25 μL of 1.2 mM AMP was added for incubation at 37° C. for 2 hours, 25 μL of supernatant was then collected from the cells and mix with 25 μL of 100 μM ATP, and then the concentration of AMP in the samples was determined by CTG (Promega, #G7573);
5. Then, a reduction ratio of the substrate AMP level in the cell culture supernatant collected after the reaction was quantitatively determined to evaluate the inhibitory effects of the examples of the present invention and the positive compounds against the CD73 enzymatic activity on the cell surface;
6. Finally, the concentration of the compound leading to half maximal inhibition of enzymatic activity (IC50) was determined using a four-parameter non-linear logistic model curve fit in Graphpad Prism.

Row | IC50 (CD73) | IC50 [1] | SMILES
1 | 3.1 nM | 0.21 nM | O=P(O)(O)CP(=O)(O)OC[C@H]1O[C@@H](n2ncc3c(NCc4ccccc4S(F)(F)(F)(F)F)cc(Cl)nc32)[C@H](O)[C@@H]1O [Example 10, (((((2R,3S,4R,5R)-5-(6-chloro-4-((2-(pentafluoro-λ^6-sulfanyl)phenylmethyl)amino)-1H-pyrazolo[3,4-b]pyridin-1-yl)-3,4-dihydroxytetrahydrofuran-2-yl)methoxy)(hydroxy)phosphoryl)methyl) phosphonic acid]
2 | 3.95 nM | 0.252 nM | O=P(O)(O)CP(=O)(O)OC[C@H]1C[C@@H](c2ccc3c(N[C@@H]4CCc5cc(F)ccc54)nc(Cl)nn23)[C@H](O)[C@@H]1O [Example 28, (((((1R,2R,3S,4S)-4-(2-chloro-4-(((R)-5-fluoro-2,3-dihydro-1H-inden-1-yl)amino)pyrrolo[2,1-f][1,2,4]triazin-7-yl)-2,3-dihydroxycyclopentyl)methoxy)(hydroxy)phosphoryl)methyl)phosphonic acid]
3 | 27.9 nM | 2.4 nM | O=P(O)(O)CP(=O)(O)OC[C@H]1C[C@@H](c2ccc3c(N[C@H]4CCc5cc(F)cc(F)c54)nc(Cl)nn23)[C@H](O)[C@@H]1O [Example 33, (((((1R,2R,3S,4S)-4-(2-chloro-4-(((S)-5,7-difluoro-2,3-dihydro-1H-inden-1-yl)amino)pyrrolo[2,1-f][1,2,4]triazin-7-yl)-2,3-dihydroxycyclopentyl)methoxy)(hydroxy)phosphoryl)methyl)phosphonic acid]
4 | 0.97 nM | 0.121 nM | CN(c1cc(Cl)nc2c1cnn2[C@@H]1O[C@H](COP(=O)(O)CP(=O)(O)O)[C@@H](O)[C@H]1O)[C@@H]1CCc2ccccc21 [Example 15, (((((2R,3S,4R,5R)-5-(6-chloro-4-(((R)-2,3-dihydro-1H-inden-1-yl)(methyl)amino)-1H-pyrazolo[3,4-b]pyridin-1-yl)-3,4-dihydroxytetrahydrofuran-2-yl)methoxy)(hydroxy)phosphoryl)methyl)phosphonic acid]
5 | 0.21 nM | 0.21 nM | O=P(O)(O)CP(=O)(O)OC[C@H]1O[C@@H](n2ncc3c(N[C@@H]4CCc5cc(F)cc(F)c54)cc(Cl)nc32)[C@H](O)[C@@H]1O [Example 21, (((((2R,3S,4R,5R)-5-(6-chloro-4-(((R)-5,7-difluoro-2,3-dihydro-1H-inden-1-yl)amino)-1H-pyrazolo[3,4-b]pyridin-1-yl)-3,4-dihydroxytetrahydrofuran-2-yl)methoxy)(hydroxy)phosphoryl)methyl)phosphonic acid]
6 | 11.8 nM | 0.54 nM | O=P(O)(O)CP(=O)(O)OC[C@H]1O[C@@H](n2ncc3c(N[C@@H]4CCc5cc(C(F)(F)F)ccc54)cc(Cl)nc32)[C@H](O)[C@@H]1O [Example 19, (((((2R,3S,4R,5R)-5-(6-chloro-4-(((R)-5-(trifluoromethyl)-2,3-dihydro-1H-inden-1-yl)amino)-1H-pyrazolo[3,4-b]pyridin-1-yl)-3,4-dihydroxytetrahydrofuran-2-yl)methoxy)(hydroxy)phosphoryl)methyl)phosphonic acid]
7 | – | 3.18 nM | O=P(O)(O)CP(=O)(O)OC[C@H]1C[C@@H](c2ccc3c(N[C@H]4CCc5ccccc54)nc(Cl)nn23)[C@H](O)[C@@H]1O [Example 26, (((((1R,2R,3S,4S)-4-(2-chloro-4-(((S)-2,3-dihydro-1H-inden-1-yl)amino)pyrrolo[2,1-f][1,2,4]triazin-7-yl)-2,3-dihydroxy-cyclopentyl)methoxy)(hydroxy)phosphoryl)methyl)phosphonic acid]
8 | 4.08 nM | 0.27 nM | O=P(O)(O)CP(=O)(O)OC[C@H]1C[C@@H](c2ccc3c(N[C@@H]4CCc5cc(F)c(F)cc54)nc(Cl)nn23)[C@H](O)[C@@H]1O [Example 32, (((((1R,2R,3S,4S)-4-(2-chloro-4-(((R)-5,6-difluoro-2,3-dihydro-1H-inden-1-yl)amino)pyrrolo[2,1-f][1,2,4]triazin-7-yl)-2,3-dihydroxycyclopentyl)methoxy)(hydroxy)phosphoryl)methyl)phosphonic acid]
9 | 0.16 nM | 0.45 nM | CN(c1cc(Cl)nc2c1cnn2[C@@H]1O[C@H](COP(=O)(O)CP(=O)(O)O)[C@@H](O)[C@H]1O)[C@H]1CCc2ccccc21 [Example 14, (((((2R,3S,4R,5R)-5-(6-chloro-4-(((S)-2,3-dihydro-1H-inden-1-yl)(methyl)amino)-1H-pyrazolo[3,4-b]pyridin-1-yl)-3,4-dihydroxytetrahydrofuran-2-yl)methoxy)(hydroxy)phosphoryl)methyl)phosphonic acid]
10 | 82.6 nM | 2.54 nM | O=P(O)(O)CP(=O)(O)OC[C@H]1C[C@@H](c2ccc3c(N[C@H]4CCc5cc(F)ccc54)nc(Cl)nn23)[C@H](O)[C@@H]1O [Example 27, (((((1R,2R,3S,4S)-4-(2-chloro-4-(((S)-5-fluoro-2,3-dihydro-1H-inden-1-yl)amino)pyrrolo[2,1-f][1,2,4]triazin-7-yl)-2,3-dihydroxycyclopentyl)methoxy)(hydroxy)phosphoryl)methyl)phosphonic acid]
11 | 15 nM | 0.71 nM | O=P(O)(O)CP(=O)(O)OC[C@H]1C[C@@H](c2ccc3c(N[C@H]4CCc5ccc(F)cc54)nc(Cl)nn23)[C@H](O)[C@@H]1O [Example 29, (((((1R,2R,3S,4S)-4-(2-chloro-4-(((S)-6-fluoro-2,3-dihydro-1H-inden-1-yl)amino)pyrrolo[2,1-f][1,2,4]triazin-7-yl)-2,3-dihydroxycyclopentyl)methoxy)(hydroxy)phosphoryl)methyl)phosphonic acid]
12 | 3.4 nM | 0.19 nM | O=P(O)(O)CP(=O)(O)OC[C@H]1C[C@@H](c2ccc3c(N[C@@H]4CCc5ccc(F)cc54)nc(Cl)nn23)[C@H](O)[C@@H]1O [Example 30, (((((1R,2R,3S,4S)-4-(2-chloro-4-(((R)-6-fluoro-2,3-dihydro-1H-inden-1-yl)amino)pyrrolo[2,1-f][1,2,4]triazin-7-yl)-2,3-dihydroxycyclopentyl)methoxy)(hydroxy)phosphoryl)methyl)phosphonic acid]
13 | 36.5 nM | 0.49 nM | C[C@H](Nc1cc(Cl)nc2c1cnn2[C@@H]1O[C@H](COP(=O)(O)CP(=O)(O)O)[C@@H](O)[C@H]1O)c1ccc(S(F)(F)(F)(F)F)cc1F [Example 5, (((((2R,3S,4R,5R)-5-(6-chloro-4-(((S)-1-(2-fluoro-4-(pentafluoro-λ^6-sulfanyl)phenyl)ethyl)amino)-1H-pyrazolo[3,4-b]pyridin-1-yl)-3,4-dihydroxytetrahydrofuran-2-yl)methoxy)(hydroxy)phosphoryl)methyl)phosphonic acid]

Source: US12157755B2, “CD73 inhibitor, preparation method therefor and application thereof” (Abbisko Therapeutics Co., Ltd., priority 2019, dated 2024)
